Test results taken from patent publication US10124064B2, “Antimicrobial compositions of aminoglycosidic antibiotics and zinc ion chelators specifically formulated for enhanced inhibition of bacterial colonization and antibacterial efficacy” (University of Cincinnati, priority 2013, dated 2018).

System: S. aureus ATCC 6538
Test: Porcine deep partial-thickness wound model inoculated with S. aureus; planktonic (flush) and biofilm (scrub) bacterial counts on day 2
Format: in vivo, Staphylococcus aureus
Description: Summarily, forty-four deep, partial-thickness wounds were created on the paravertebral area on two pigs. Four wounds each were randomly assigned to eleven treatment groups and inoculated with S. aureus ATCC 6538. Wounds were treated with approximately 200 mg of each treatment. On day 2, wounds were assessed using a flush and scrub technique to recover planktonic and biofilm-associated bacterial count, respectively.
Swine (2 animals) were used as the experimental animal due to the morphological, physiological, and biochemical similarities between swine skin and human skin.
• 44 deep partial thickness wounds measuring 10 mm×7 mm×0.5 mm were made in the peravertebral and thoracic areas of each animal • 4 wounds were randomly assigned to each of the 11 treatment groups Inoculation: • 25 μl of inoculum of 10^6 CFU/ml were inoculated into each wound and scrubbed lightly using a sterile Teflon spatula. Experimental Design: Pig 1: Treatment Groups
• Within 20 minutes of inoculation each wound was treated with the appropriate treatment. Each wound was treated with ≅200 mg of the appropriate treatment (days 0 and 1). • All wounds were covered with polyurethane film dressings Wound Recovery: • A sterile surgical steel cylinder (22 mm inside diameter) was placed over the wound area and 1 ml of all-purpose neutralizer solution was pipetted inside. • The site was gently flushed by pipetting in and out three times to remove the loosely attached bacteria (a), this aliquot represents the planktonic bacteria. • The same wound was then encircled using another sterile cylinder and 1 ml of all-purpose neutralizer solution was again pipetted into the cylinder and this time scrubbed with a sterile Teflon spatula for 30 seconds to remove the firmly attached bacteria (b), this aliquot was aspirated and represents biofilm bacteria.

[1] = swine wounds, 30000 μM (=15 mg/ml) DTPA used alone, topical, day 2

Substance | reduction of S. aureus counts compared to the untreated group (30000 μM DTPA alone) | bacterial counts (planktonic and biofilm) versus untreated control wounds (all concentrations of DTPA alone (30 to 30000 μM)) | biofilm count [1] | planktonic bacterial count [1] | reduction in wound bioburden versus DTPA alone (0.1% Gentamicin positive control compared with all DTPA concentrations alone)
diethylenetriamine pentaacetic acid [DTPA] | 99.96% | reduced bacterial counts | 6.09±012 Log CFU/ml | 5.19±0.29 Log CFU/ml | –
gentamicin [Gentamicin 0.1%, reference compound] | – | – | – | – | substantially more reduction in wound bioburden than any of the DTPA concentrations alone
